Data published in US20150132382A1, “COMPOSITIONS AND METHODS OF TREATMENT COMPRISING FOSFOMYCIN DISODIUM” (Forest Laboratories Holdings Ltd., priority 2013, published 2015).

Tests used:
[1] = Borsa et al 1988; cited from earlier work
[2] = Microenvironmental pH of fosfomycin sodium, with and without organic acid; type: physicochemical
From the text: Fosfomycin may be granulated by using methods such as slugging, low or high shear granulation or fluid bed granulation. For example, for high shear granulation (e.g., Diosna Mixer Granulator), fosfomycin can be blended with a water soluble filler (e.g., lactose, sucrose, mannitol and sorbitol) and granulated with binder (sugars like sucrose and liquid glucose; natural binders like starch and pre-gelatinized starch; synthetic/semisynthetic polymers like HPMC, povidone, PEG, polyvinyl alcohol) solution. The granules are dried, milled and blended with an organic acid (e.g., citric acid, tartaric acid, succinic acid, malic acid, fumaric acid), anti-adherent (e.g., talc, fumed silica) and lubricant (sodium stearyl fumarate). The organic acid serves as a neutralizer counteracting microenvironmental high alkalinity resulting from fosfomycin sodium. Fosfomycin sodium microenvironmental pH of about 9 would be reduced to pH 6-8 due to the presence of an organic acid. The final blend is compressed into tablets (1.4-1.7 g/tablet) followed by film coating (e.g., Opadry) in a conventional coating pan. These formulations can provide≧80% fosfomycin dissolution in less than 30 minutes at pH 1.2.

[3] = cited from earlier work
[4] = compared with the other fosfomycin salt (Bergan 1990); cited from earlier work

C[C@@H]1O[C@@H]1P(=O)(O)O [Fosfomycin disodium, fosfomycin disodium]
gastric irritation [1]: known to cause gastric irritation | microenvironmental pH [2]: about 9

C[C@@H]1O[C@@H]1P(=O)([O-])[O-].[Ca+2] [fosfomycin calcium]
solubility in water [3]: slightly soluble in water | bioavailability [4]: lower bioavailability
